Source: ChEMBL document CHEMBL3112424, “Discovery and optimization of pyrimidone indoline amide PI3Kβ inhibitors for the treatment of phosphatase and tensin homologue (PTEN)-deficient cancers” (J Med Chem, 2014)
Values after ≈ are worked out from the molar mass of the structure shown.

Key:
[1] = target: T1, Phosphatidylinositol 4,5-bisphosphate 3-kinase catalytic subunit delta isoform (Homo sapiens, UniProt O00329); assay: Inhibition of N-terminal ploy-His-tagged human PI3Kdelta expressed in baculovirus-infected sf9 cells using PI(4,5)P2 as substrate after 15 mins by HTRF assay
T1 sequence (O00329 whole entry): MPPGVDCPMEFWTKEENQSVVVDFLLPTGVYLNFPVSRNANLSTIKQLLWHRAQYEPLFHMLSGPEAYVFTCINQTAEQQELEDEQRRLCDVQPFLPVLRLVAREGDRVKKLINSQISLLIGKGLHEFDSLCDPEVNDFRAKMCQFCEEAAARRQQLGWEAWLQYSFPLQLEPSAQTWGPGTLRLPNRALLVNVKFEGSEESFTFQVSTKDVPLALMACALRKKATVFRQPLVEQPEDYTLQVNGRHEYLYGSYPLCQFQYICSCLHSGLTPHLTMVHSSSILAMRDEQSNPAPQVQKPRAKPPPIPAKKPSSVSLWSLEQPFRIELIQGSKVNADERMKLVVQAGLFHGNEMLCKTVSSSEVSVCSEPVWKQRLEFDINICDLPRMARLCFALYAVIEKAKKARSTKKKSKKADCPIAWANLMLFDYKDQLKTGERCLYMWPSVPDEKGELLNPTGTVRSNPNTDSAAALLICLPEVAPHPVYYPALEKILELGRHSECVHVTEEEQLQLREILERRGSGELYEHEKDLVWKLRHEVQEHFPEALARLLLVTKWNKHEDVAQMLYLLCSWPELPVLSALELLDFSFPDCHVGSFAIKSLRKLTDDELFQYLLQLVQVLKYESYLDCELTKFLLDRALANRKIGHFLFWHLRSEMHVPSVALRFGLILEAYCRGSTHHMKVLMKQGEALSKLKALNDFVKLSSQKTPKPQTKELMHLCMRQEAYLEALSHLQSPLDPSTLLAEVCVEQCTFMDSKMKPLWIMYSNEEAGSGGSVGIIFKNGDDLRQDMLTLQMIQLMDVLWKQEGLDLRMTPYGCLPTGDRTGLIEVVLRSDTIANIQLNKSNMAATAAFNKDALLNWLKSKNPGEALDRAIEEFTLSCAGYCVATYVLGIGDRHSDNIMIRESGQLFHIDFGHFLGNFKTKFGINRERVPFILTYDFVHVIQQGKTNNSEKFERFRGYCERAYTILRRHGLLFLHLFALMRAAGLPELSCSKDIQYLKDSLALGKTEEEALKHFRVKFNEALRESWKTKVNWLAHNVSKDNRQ

[2] = Solubility of the compound in phosphate buffer at pH 7.4 by HPLC analysis; conditions: phosphate buffer
[3] = target: T2, Phosphatidylinositol 4,5-bisphosphate 3-kinase catalytic subunit beta isoform (Homo sapiens, UniProt P42338); assay: Inhibition of N-terminal ploy-His-tagged human PI3Kbeta expressed in baculovirus-infected sf21 cells using PI(4,5)P2 as substrate after 15 mins by HTRF assay
T2 sequence (P42338 whole entry, canonical isoform): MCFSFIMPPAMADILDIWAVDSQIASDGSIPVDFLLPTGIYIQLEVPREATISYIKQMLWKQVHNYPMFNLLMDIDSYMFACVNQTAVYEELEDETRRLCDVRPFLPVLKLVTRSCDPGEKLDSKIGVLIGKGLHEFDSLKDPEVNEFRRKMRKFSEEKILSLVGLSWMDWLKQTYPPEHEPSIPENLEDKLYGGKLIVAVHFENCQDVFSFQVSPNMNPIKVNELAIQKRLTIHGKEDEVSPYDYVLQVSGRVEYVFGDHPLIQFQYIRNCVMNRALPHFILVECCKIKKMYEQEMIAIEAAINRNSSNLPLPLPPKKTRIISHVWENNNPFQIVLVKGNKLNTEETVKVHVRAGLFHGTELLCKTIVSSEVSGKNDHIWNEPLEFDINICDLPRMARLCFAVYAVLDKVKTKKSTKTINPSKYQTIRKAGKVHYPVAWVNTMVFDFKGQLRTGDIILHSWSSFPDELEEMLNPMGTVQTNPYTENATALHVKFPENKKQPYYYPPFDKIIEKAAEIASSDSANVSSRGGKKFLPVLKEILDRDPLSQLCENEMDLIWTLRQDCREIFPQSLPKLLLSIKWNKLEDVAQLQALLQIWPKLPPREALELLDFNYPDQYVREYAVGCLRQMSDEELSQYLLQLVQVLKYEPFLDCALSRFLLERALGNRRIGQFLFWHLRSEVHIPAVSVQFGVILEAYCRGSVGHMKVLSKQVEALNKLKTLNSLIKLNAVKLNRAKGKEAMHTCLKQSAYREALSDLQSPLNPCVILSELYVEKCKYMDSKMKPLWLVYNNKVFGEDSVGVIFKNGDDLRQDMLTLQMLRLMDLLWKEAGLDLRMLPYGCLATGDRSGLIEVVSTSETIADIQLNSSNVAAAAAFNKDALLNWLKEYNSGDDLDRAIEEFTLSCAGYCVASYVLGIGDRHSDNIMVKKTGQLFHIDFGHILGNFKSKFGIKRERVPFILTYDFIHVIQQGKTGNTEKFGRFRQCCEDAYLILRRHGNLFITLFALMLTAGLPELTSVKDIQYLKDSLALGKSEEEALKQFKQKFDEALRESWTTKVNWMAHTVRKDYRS

[4] = Apparent permeability in human Caco2 cells at 5 uM after 20 mins; conditions: Caco-2
Cytochrome P450 3A4 = Cytochrome P450 3A4 (Homo sapiens, UniProt P08684); assay: Inhibition of recombinant human CYP3A4
Cytochrome P450 3A4, sequence (P08684 whole entry, canonical isoform): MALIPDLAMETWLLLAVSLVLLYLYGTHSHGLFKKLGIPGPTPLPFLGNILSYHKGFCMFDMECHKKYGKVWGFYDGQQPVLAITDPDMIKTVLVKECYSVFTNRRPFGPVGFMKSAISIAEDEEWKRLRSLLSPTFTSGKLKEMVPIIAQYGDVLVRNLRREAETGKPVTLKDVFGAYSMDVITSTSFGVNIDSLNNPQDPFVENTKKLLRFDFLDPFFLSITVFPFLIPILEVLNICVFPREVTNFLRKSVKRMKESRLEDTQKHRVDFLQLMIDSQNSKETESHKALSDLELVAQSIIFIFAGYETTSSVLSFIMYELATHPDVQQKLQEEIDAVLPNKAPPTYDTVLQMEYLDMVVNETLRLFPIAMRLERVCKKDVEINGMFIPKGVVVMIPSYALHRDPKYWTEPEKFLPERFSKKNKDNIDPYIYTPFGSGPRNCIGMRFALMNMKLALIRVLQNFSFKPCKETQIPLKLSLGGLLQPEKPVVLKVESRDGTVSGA

[5] = target: Phosphatidylinositol 4,5-bisphosphate 3-kinase catalytic subunit gamma isoform (Homo sapiens, UniProt P48736); assay: Inhibition of C-terminal ploy-His-tagged human PI3Kgamma expressed in baculovirus-infected sf9 cells using PI(4,5)P2 as substrate after 15 mins by HTRF assay
Phosphatidylinositol 4,5-bisphosphate 3-kinase catalytic subunit gamma isoform, sequence (P48736 whole entry, canonical isoform): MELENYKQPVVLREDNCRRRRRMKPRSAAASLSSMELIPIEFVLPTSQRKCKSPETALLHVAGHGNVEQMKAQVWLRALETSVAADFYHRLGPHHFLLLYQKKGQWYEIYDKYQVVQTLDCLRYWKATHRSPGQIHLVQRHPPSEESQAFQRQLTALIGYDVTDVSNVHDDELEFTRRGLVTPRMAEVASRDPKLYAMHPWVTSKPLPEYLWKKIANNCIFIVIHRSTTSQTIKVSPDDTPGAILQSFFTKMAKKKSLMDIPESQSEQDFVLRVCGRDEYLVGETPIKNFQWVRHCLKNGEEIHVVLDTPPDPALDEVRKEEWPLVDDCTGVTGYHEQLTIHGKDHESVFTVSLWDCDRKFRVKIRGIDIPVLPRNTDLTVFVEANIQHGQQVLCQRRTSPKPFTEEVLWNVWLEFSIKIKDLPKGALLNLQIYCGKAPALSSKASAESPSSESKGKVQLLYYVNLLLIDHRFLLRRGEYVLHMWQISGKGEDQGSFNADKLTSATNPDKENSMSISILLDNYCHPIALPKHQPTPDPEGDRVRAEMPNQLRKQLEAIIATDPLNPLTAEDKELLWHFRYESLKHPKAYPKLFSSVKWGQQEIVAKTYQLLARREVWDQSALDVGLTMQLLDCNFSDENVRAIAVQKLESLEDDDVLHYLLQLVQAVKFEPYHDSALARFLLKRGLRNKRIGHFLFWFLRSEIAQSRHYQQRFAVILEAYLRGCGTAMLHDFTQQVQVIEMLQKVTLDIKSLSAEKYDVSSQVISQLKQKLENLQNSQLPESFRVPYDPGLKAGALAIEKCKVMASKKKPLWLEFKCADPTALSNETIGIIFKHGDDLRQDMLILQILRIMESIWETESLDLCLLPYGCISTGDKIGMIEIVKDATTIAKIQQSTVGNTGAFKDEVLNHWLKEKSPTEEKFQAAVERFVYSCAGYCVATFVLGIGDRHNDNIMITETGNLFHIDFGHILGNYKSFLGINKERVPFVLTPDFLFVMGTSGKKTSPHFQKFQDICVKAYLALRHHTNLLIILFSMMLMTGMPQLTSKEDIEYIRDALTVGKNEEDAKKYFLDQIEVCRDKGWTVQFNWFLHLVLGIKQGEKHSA

[6] = Metabolic stability in mouse liver microsomes at 5 uM after 20 mins
[7] = Metabolic stability in human liver microsomes at 5 uM after 20 mins
[8] = target: Phosphatidylinositol 4,5-bisphosphate 3-kinase catalytic subunit alpha isoform (Homo sapiens, UniProt P42336); assay: Inhibition of N-terminal ploy-His-tagged human PI3Kalpha expressed in baculovirus-infected sf9 cells using PI(4,5)P2 as substrate after 15 mins by HTRF assay
Phosphatidylinositol 4,5-bisphosphate 3-kinase catalytic subunit alpha isoform, sequence (P42336 whole entry, canonical isoform): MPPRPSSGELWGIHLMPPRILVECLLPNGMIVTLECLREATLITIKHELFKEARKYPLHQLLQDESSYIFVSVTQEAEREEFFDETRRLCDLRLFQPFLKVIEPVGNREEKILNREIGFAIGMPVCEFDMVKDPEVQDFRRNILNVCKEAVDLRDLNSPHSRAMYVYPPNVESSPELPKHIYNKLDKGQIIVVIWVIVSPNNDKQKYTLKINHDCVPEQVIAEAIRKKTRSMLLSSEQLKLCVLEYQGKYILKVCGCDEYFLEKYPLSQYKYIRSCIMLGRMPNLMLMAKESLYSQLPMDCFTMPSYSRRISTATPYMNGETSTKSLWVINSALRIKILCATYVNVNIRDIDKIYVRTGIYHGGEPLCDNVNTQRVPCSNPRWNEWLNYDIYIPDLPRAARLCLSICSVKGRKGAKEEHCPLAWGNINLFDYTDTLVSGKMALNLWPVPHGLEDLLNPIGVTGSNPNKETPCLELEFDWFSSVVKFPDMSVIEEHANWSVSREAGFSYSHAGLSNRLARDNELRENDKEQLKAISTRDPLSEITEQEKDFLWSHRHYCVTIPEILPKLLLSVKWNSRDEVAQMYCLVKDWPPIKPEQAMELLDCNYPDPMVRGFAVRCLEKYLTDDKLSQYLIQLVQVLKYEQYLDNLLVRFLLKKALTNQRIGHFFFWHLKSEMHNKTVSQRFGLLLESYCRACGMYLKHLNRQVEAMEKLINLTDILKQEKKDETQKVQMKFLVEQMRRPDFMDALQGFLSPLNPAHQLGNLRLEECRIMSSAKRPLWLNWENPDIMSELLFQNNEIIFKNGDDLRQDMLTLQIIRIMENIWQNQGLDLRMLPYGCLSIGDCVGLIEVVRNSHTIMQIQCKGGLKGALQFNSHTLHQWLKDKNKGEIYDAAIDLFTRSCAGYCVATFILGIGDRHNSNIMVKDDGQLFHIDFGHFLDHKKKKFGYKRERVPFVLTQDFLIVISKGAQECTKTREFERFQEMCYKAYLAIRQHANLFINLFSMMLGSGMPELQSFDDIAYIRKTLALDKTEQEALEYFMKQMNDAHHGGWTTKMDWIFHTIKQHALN

[9] = target: T2, Phosphatidylinositol 4,5-bisphosphate 3-kinase catalytic subunit beta isoform; assay: Inhibition of PI3Kbeta-mediated Akt phosphorylation at S473 in PTEN-deficient human PC3 cells after 0.5 to 2 hrs by Immunoblotting assay; type: cell-based, PC-3
PC-3 = assay: Antitumor activity against po dosed PTEN-deficient human PC3 cells xenografted in nude mouse assessed as tumor growth inhibition administered as qd measured for 52 days; type: functional
[10] = Lipophilicity, log D of the compound; type: physicochemical; conditions: octanol/water
[11] = Dissociation constant, pKa of the compound; type: physicochemical

| IC50 [1] [nM] | solubility [2] [µM] | IC50 [3] [nM] | Papp at 20 min, 5 µM [4] [×10⁻⁶ cm/s] | IC50 (Cytochrome P450 3A4) [nM] | IC50 [5] [nM] | remaining at 20 min, 5 µM ([6]; liver microsomes) [%] | remaining at 20 min, 5 µM ([7]; liver microsomes) [%] | IC50 [8] [nM] | IC50 [9] [nM] | logD [10] | pKa [11] | SMILES | T/C (PC-3) [%] | remaining at 20 min, 5 µM ([6]; microsomes) [%] | remaining at 20 min, 5 µM ([7]; microsomes) [%] |
| --- | --- | --- | --- | --- | --- | --- | --- | --- | --- | --- | --- | --- | --- | --- | --- |
| 106 | 110 (≈ 45.9 µg/mL) | 98 | 4.2 | 11000 | 8970 | 40 | 36 | 2380 | 66 |  |  | O=C(Cc1nc(N2CCOCC2)cc(=O)[nH]1)N1CCc2c(-c3ccccn3)cccc21 |  |  |  |
| 87 | 3 (≈ 1.06 µg/mL) | 22 | 7.5 | 40000 | 10000 | 40 | 47 | 2260 | 13 |  |  | CC1CN(C(=O)Cc2nc(N3CCOCC3)cc(=O)[nH]2)c2ccccc21 (racemic) |  |  |  |
|  |  |  |  |  | 10000 |  |  |  |  |  |  | Cn1c(Cc2nc(N3CCOCC3)cc(=O)[nH]2)nc2ccccc21 |  |  |  |
| 21 | 5 (≈ 1.87 µg/mL) | 1 | 8.8 | 40000 | 1130 | 27 | 18 | 86 | 3 |  |  | O=C(Cc1nc(N2CCOCC2)cc(=O)[nH]1)N1CCc2c(Cl)cccc21 |  |  |  |
| 22 | 1500 (≈ 656 µg/mL) | 407 |  |  | 10000 |  |  | 960 | 167 |  |  | CN1CCN(c2cccc3c2CCN3C(=O)Cc2nc(N3CCOCC3)cc(=O)[nH]2)CC1 |  |  |  |
| 278 | 36 (≈ 12.8 µg/mL) | 48 | 8.3 |  |  | 37 | 14 | 4320 | 20 |  |  | Cn1c(CC(=O)N2CCc3ccccc32)nc(N2CCOCC2)cc1=O |  |  |  |
|  |  |  |  |  |  |  |  |  |  |  |  | C[C@H]1c2cccc(O)c2C(=O)C2=C(O)[C@]3(O)C(=O)C(C(N)=O)=C(O)[C@@H](N(C)C)[C@@H]3[C@@H](O)[C@@H]21.O [DOXYCYCLINE] | 49 |  |  |
| 580 | 46 (≈ 16.9 µg/mL) | 102 |  |  |  |  |  |  | 78 |  |  | CC1(C)Cc2ccccc2N1C(=O)Cc1nc(N2CCOCC2)cc(=O)[nH]1 |  |  |  |
| 34 | 12 (≈ 5.09 µg/mL) | 33 | 4.1 | 40000 | 7420 | 44 | 48 | 1000 | 54 |  |  | O=C(Cc1nc(N2CCOCC2)cc(=O)[nH]1)N1CCc2c(OC(F)(F)F)cccc21 |  |  |  |
| 28 | 12 (≈ 4.08 µg/mL) | 4 | 5.9 | 40000 | 10000 | 21 | 12 | 460 | 15 |  |  | O=C(Cc1nc(N2CCOCC2)cc(=O)[nH]1)N1CCc2ccccc21 |  |  |  |
| 4130 | 3 (≈ 1.12 µg/mL) | 79 | 1.4 | 40000 | 10000 | 36 | 34 | 2020 | 124 |  |  | O=C(Cc1nc(N2CCOCC2)cc(=O)[nH]1)N1CCc2cc(Cl)ccc21 |  |  |  |
| 2 | 4420 (≈ 2000 µg/mL) | 332 |  |  |  |  |  | 660 | 272 |  |  | CN1CCN(Cc2cccc3c2CCN3C(=O)Cc2nc(N3CCOCC3)cc(=O)[nH]2)CC1 |  |  |  |
| 22 | 69 (≈ 28.8 µg/mL) | 10 | 0.4 | 31000 | 1000 | 44 | 43 | 1000 | 94 | 1.99 | 4.5 | O=C(Cc1nc(N2CCOCC2)cc(=O)[nH]1)N1CCc2c(-c3ccncc3)cccc21 |  |  |  |
| 17 | 31 (≈ 11.1 µg/mL) | 4 | 3 | 40000 | 1590 | 14 | 18 | 426 | 7 |  |  | O=C(Cc1nc(N2CCOCC2)cc(=O)[nH]1)N1CCc2cc(F)ccc21 |  |  |  |
| 648 | 5 (≈ 1.85 µg/mL) | 41 | 0.6 | 40000 |  | 70 | 0 | 2420 | 60 |  |  | COc1cccc2c1CCN2C(=O)Cc1nc(N2CCOCC2)cc(=O)[nH]1 |  |  |  |
| 278 | 46 (≈ 16.9 µg/mL) | 17 | 4 | 40000 |  | 87 | 83 | 5420 | 28 |  |  | CC1(C)CN(C(=O)Cc2nc(N3CCOCC3)cc(=O)[nH]2)c2ccccc21 |  |  |  |
| 24 | 3 (≈ 1.06 µg/mL) | 5 | 7.4 |  | 1780 | 60 | 32 | 138 | 3 |  |  | Cc1cccc2c1CCN2C(=O)Cc1nc(N2CCOCC2)cc(=O)[nH]1 |  |  |  |
| 98 | 12 (≈ 4.9 µg/mL) | 10 | 4.6 | 40000 | 8400 | 13 | 24 | 390 | 9 |  |  | O=C(Cc1nc(N2CCOCC2)cc(=O)[nH]1)N1CCc2c1cccc2C(F)(F)F |  |  |  |
| 55 | 2 (≈ 0.839 µg/mL) | 6 | 4.2 | 40000 | 3980 | 22 | 24 | 85 | 1 |  |  | O=C(Cc1nc(N2CCOCC2)cc(=O)[nH]1)N1CCc2c(Br)cccc21 |  |  |  |
| 7 | 60 (≈ 25 µg/mL) | 17 | 0.8 | 40000 | 2460 | 49 | 29 | 361 | 53 | 1.99 | 4.5 | O=C(Cc1nc(N2CCOCC2)cc(=O)[nH]1)N1CCc2c(-c3cccnc3)cccc21 |  |  |  |
| 18 |  | 8 | 7.1 | 40000 | 1530 | 25 | 40 | 217 | 24 |  |  | O=C(Cc1nc(N2CCOCC2)cc(=O)[nH]1)N1CCc2c(-c3ccccc3)cccc21 |  |  |  |

| SMILES | IC50 [1] [nM] | solubility [2] [µM] | IC50 [3] [nM] | Papp at 20 min, 5 µM [4] [×10⁻⁶ cm/s] | IC50 (Cytochrome P450 3A4) [nM] | IC50 [5] [nM] | remaining at 20 min, 5 µM ([6]; liver microsomes) [%] | remaining at 20 min, 5 µM ([7]; liver microsomes) [%] | IC50 [8] [nM] | IC50 [9] [nM] | logD [10] | pKa [11] | T/C (PC-3) [%] | remaining at 20 min, 5 µM ([6]; microsomes) [%] | remaining at 20 min, 5 µM ([7]; microsomes) [%] |
| --- | --- | --- | --- | --- | --- | --- | --- | --- | --- | --- | --- | --- | --- | --- | --- |
| C[C@@H]1Cc2ccccc2N1C(=O)Cc1nc(N2CCOCC2)cc(=O)[nH]1 | 6 | 2500 (≈ 885 µg/mL) | 6 | 5.1 | 40000 | 3320 | 52 | 43 |  | 12 |  |  |  |  |  |
| O=C(Cc1nc(N2CCOCC2)cc(=O)[nH]1)N1CCc2c(F)cccc21 | 122 |  |  |  |  | 6220 |  |  | 2450 |  |  |  |  | 9 | 19 |
| CC1Cc2ccccc2N1C(=O)Cc1nc(N2CCOCC2)cc(=O)[nH]1 (racemic) | 36 | 2750 (≈ 976 µg/mL) | 4 |  |  | 9150 |  |  |  | 6 |  |  |  |  |  |
